Laboratory results as given in patent US11780830B2, “Triazolone derivatives or salts thereof and pharmaceutical compositions comprising the same” (YUHAN CORPORATION, priority 2018, dated 2023).

Tests used:
Assay type in all cases: biochemical
[1] = target: T1, recombinant human VAP-1 (Homo sapiens, UniProt Q16853); assay: Activity on recombinant human VAP-1, HRP-coupled Amplex Red hydrogen peroxide assay; details: substrate 1 mM benzylamine; compound incubated with enzyme at 37° C. for 30 minutes; pH 7.4; read-out: Inhibitory Activity (IC50, nM) human VAP-1
T1 construct: purchased R&D systems
T1 sequence (Q16853 1-763): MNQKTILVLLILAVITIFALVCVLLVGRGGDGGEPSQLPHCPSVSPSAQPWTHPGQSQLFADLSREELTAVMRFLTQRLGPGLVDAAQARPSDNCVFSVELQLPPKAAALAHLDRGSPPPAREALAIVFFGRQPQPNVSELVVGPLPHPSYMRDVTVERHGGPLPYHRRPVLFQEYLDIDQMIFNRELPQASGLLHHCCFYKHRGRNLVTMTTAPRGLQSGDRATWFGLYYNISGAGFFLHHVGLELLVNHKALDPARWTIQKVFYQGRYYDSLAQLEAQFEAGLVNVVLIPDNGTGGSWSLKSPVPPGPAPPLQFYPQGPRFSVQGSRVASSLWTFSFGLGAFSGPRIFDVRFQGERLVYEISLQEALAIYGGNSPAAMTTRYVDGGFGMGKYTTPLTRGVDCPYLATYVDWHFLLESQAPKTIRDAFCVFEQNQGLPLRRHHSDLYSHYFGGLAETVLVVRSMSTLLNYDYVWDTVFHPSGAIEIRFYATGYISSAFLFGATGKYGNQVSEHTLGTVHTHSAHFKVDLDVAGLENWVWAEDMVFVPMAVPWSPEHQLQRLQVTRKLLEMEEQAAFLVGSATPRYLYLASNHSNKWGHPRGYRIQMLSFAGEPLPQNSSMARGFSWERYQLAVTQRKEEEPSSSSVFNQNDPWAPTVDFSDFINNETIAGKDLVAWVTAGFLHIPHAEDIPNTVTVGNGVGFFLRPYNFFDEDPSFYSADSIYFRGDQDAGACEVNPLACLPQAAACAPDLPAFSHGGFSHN
Procedure, shortened: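 Enzyme in 50 mM sodium phosphate (pH 7.4) is exposed to test compound for 30 min at 37 °C. Benzylamine (1 mM) with HRP and Amplex Red then starts the reaction, and the fluorescence rate, relative to a DMSO-only control, gives IC50.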

[2] = target: T2, recombinant human MAO-A (monoamine oxidase-A) (Homo sapiens, UniProt P21397); assay: Activity on recombinant human MAO-A, method similar to the VAP-1 assay; details: substrate 0.5 mM tyramine; read-out: Inhibitory Activity (IC50, nM) MAO-A
T2 construct: purchased Sigma-Aldrich
T2 sequence (P21397 1-527): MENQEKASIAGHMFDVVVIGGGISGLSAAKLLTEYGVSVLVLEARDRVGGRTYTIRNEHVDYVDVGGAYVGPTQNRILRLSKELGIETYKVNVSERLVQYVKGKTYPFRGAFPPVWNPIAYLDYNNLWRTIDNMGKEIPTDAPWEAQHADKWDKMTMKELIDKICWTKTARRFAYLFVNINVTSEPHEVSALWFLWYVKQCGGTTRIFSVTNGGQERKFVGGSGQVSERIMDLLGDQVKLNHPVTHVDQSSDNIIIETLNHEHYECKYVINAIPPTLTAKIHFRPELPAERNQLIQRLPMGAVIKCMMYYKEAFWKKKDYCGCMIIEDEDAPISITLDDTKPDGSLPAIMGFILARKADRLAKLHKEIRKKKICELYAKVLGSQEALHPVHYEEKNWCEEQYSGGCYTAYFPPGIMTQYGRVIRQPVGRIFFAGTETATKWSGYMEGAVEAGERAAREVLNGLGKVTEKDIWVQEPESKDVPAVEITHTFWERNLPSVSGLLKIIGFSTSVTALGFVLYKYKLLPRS
Procedure, shortened: (§1)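 Enzyme in pH 7.4 phosphate buffer; 30 min, 37° C with compound (DMSO <1%); start with 200 uM Amplex Red + 1 U/mL HRP + tyramine 0.5 mM (MAO-A) or benzylamine 1 mM (MAO-B); kinetic read ex 544/em 590, 1-2 h; % rate decrease vs DMSO control → IC50, 4-parameter fit.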

[3] = target: T3, recombinant human DAO (diamine oxidase) (Homo sapiens, UniProt P19801); assay: Activity on recombinant human DAO, method similar to the VAP-1 assay; details: substrate 1 mM putrescine; read-out: Inhibitory Activity (IC50, nM) DAO
T3 construct: purchased R&D systems
T3 sequence (P19801 20-751): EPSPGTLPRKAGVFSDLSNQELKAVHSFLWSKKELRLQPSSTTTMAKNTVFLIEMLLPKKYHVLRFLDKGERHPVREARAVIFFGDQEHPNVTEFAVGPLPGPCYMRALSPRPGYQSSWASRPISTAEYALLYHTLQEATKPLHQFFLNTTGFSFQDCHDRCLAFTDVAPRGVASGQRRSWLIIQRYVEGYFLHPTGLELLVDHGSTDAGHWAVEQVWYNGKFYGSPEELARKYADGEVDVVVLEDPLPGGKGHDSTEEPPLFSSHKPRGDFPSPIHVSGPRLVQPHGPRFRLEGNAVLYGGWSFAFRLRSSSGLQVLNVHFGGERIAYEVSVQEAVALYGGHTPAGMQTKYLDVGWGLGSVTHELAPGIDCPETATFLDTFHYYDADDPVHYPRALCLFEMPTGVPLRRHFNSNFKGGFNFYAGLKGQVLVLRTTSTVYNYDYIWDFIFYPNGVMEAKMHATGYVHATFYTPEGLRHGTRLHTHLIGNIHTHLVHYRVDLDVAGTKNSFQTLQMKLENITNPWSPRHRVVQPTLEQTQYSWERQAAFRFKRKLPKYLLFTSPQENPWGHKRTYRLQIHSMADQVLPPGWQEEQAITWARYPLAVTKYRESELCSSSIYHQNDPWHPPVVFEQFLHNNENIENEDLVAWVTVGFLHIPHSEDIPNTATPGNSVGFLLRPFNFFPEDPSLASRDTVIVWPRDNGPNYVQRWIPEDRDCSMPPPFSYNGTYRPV
Procedure, shortened: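 Inhibition of recombinant human diamine oxidase (DAO, R&D systems) was assessed by the same approach as the VAP-1 assay, using 1 mM putrescine as substrate. Hydrogen peroxide formed was detected through an HRP-coupled Amplex Red reaction yielding fluorescent resorufin, read at 544 nm excitation and 590 nm emission. IC50 values came from four-parameter logistic fitting in GraphPad Prism.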

[4] = target: T4, recombinant human MAO-B (monoamine oxidase-B) (Homo sapiens, UniProt P27338); assay: Activity on recombinant human MAO-B, method similar to the VAP-1 assay; details: substrate 1 mM benzylamine; read-out: Inhibitory Activity (IC50, nM) MAO-B
T4 construct: purchased Sigma-Aldrich
T4 sequence (P27338 1-520): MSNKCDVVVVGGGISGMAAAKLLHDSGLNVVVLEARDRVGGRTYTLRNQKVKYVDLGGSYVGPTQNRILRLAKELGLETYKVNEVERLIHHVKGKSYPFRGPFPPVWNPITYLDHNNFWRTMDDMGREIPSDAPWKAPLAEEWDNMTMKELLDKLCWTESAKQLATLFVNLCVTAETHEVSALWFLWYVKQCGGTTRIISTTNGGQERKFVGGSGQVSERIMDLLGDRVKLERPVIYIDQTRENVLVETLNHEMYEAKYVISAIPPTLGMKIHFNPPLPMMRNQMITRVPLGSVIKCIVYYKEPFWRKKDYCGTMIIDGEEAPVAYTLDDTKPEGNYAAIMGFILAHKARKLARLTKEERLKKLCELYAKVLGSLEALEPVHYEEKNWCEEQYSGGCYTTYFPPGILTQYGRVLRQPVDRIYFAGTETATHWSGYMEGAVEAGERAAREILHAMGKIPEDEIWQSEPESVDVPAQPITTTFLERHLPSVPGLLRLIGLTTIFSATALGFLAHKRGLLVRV
Procedure, shortened: as §1

Row | IC50 [1] [nM] | IC50 [2] [nM] | IC50 [3] [nM] | IC50 [4] [nM] | Compound
1 | 1.6 | > 100000 | 1200 | 1500 | CCn1cc(-c2ccc(Cn3cnn(C/C(=C/F)CN)c3=O)s2)ccc1=O [Example 194, 5-[5-({1-[(2E)-2-(aminomethyl)-3-fluoroprop-2-en-1-yl]-5-oxo-1,5-dihydro-4H-1,2,4-triazol-4-yl}methyl)thiophen-2-yl]-1-ethylpyridin-2(1H)-one]
2 | 1.6 | > 100000 | 710 | 2300 | NC/C(=C\F)Cn1ncn(Cc2ccc(-c3ccc(=O)n(C4CC4)c3)s2)c1=O [Example 195, 5-[5-({1-[(2E)-2-(aminomethyl)-3-fluoroprop-2-en-1-yl]-5-oxo-1,5-dihydro-4H-1,2,4-triazol-4-yl}methyl)thiophen-2-yl]-1-cyclopropylpyridin-2(1H)-one]
3 | 2.3 | > 100000 | 230 | 4700 | CCS(=O)(=O)c1ccc(-c2ccc(Cn3cnn(C/C(=C/F)CN)c3=O)s2)cc1 [Example 196, 2-[(2E)-2-(aminomethyl)-3-fluoroprop-2-en-1-yl]-4-({5-[4-(ethylsulfonyl)phenyl]thiophen-2-yl}methyl)-2,4-dihydro-3H-1,2,4-triazol-3-one]
4 | 2 | > 100000 | 340 | 2700 | NC/C(=C\F)Cn1ncn(Cc2ccc(-c3ccc(S(=O)(=O)NC4CC4)cc3)s2)c1=O [Example 197, 4-[5-({1-[(2E)-2-(aminomethyl)-3-fluoroprop-2-en-1-yl]-5-oxo-1,5-dihydro-4H-1,2,4-triazol-4-yl}methyl)thiophen-2-yl]-N-cyclopropylbenzenesulfonamide]
5 | 8.8 | > 100000 | 1100 | > 100000 | NC/C(=C\F)Cn1ncn(Cc2ccc(-c3ccc(N4CCNCC4)nc3)s2)c1=O [Example 199, 2-[(2E)-2-(aminomethyl)-3-fluoroprop-2-en-1-yl]-4-({5-[6-(piperazin-1-yl)pyridin-3-yl]thiophen-2-yl}methyl)-2,4-dihydro-3H-1,2,4-triazol-3-one]
6 | 1.5 | > 100000 | 450 | 3000 | CS(=O)(=O)c1ccc(-c2csc(Cn3cnn(C/C(=C/F)CN)c3=O)c2)cc1 [Example 201]
7 | 3.8 | > 100000 | 2800 | 64 | NC/C(=C\F)Cn1ncn(Cc2cc3cc(-c4ccc5c(c4)OCO5)ccc3s2)c1=O [Example 207, 2-[(2E)-2-(aminomethyl)-3-fluoroprop-2-en-1-yl]-4-{[5-(1,3-benzodioxol-5-yl)-1-benzothiophen-2-yl]methyl}-2,4-dihydro-3H-1,2,4-triazol-3-one]
8 | 1.2 | > 100000 | 780 | 26000 | CS(=O)(=O)c1ccc(-c2ccc3sc(Cn4cnn(C/C(=C/F)CN)c4=O)cc3c2)cc1 [Example 208, 2-[(2E)-2-(aminomethyl)-3-fluoroprop-2-en-1-yl]-4-({5-[4-(methylsulfonyl)phenyl]-1-benzothiophen-2-yl}methyl)-2,4-dihydro-3H-1,2,4-triazol-3-one]
9 | 2.3 | > 100000 | 1500 | 990 | NC/C(=C\F)Cn1ncn(Cc2cc3cc(-c4ccc(C(F)(F)F)nc4)ccc3s2)c1=O [Example 209, 2-[(2E)-2-(aminomethyl)-3-fluoroprop-2-en-1-yl]-4-({5-[6-(trifluoromethyl)pyridin-3-yl]-1-benzothiophen-2-yl}methyl)-2,4-dihydro-3H-1,2,4-triazol-3-one]
10 | 1.7 | > 100000 | 590 | 9200 | Cc1cc(-c2ccc3sc(Cn4cnn(C/C(=C/F)CN)c4=O)cc3c2)cc2c1NC(=O)CC2 [Example 210, 6-[2-({1-[(2E)-2-(aminomethyl)-3-fluoroprop-2-en-1-yl]-5-oxo-1,5-dihydro-4H-1,2,4-triazol-4-yl}methyl)-1-benzothiophen-5-yl]-8-methyl-3,4-dihydroquinolin-2(1H)-one]
11 | 1.9 | 49000 | 1000 | 7900 | CN1C(=O)CCc2cc(-c3ccc4sc(Cn5cnn(C/C(=C/F)CN)c5=O)cc4c3)ccc21 [Example 211, 6-[2-({1-[(2E)-2-(aminomethyl)-3-fluoroprop-2-en-1-yl]-5-oxo-1,5-dihydro-4H-1,2,4-triazol-4-yl}methyl)-1-benzothiophen-5-yl]-1-methyl-3,4-dihydroquinolin-2(1H)-one]
12 | 2.3 | 37000 | 77000 | 4900 | CN(C)c1ccc(-c2ccc3sc(Cn4cnn(C/C(=C/F)CN)c4=O)cc3c2)cn1 [Example 212, 2-[(2E)-2-(aminomethyl)-3-fluoroprop-2-en-1-yl]-4-({5-[6-(dimethylamino)pyridin-3-yl]-1-benzothiophen-2-yl}methyl)-2,4-dihydro-3H-1,2,4-triazol-3-one]
